Experimental data reported in article PMC7055688 (Journal of fluorine chemistry, 2019).
In brackets after ≈: the same amount, converted by molar mass.

Assays:
[1] = solubility in sodium phosphate buffer; assay type: physicochemical; conditions: pH 7.4, aqueous buffer, kinetic from dmso stock
human sEH = biological target: T1, human sEH (Homo sapiens, UniProt P34913); assay: kinetic fluorescent assay of sEH inhibitory potency; assay type: biochemical; conditions: for fold increase of activity compared to 3a: ratio of IC50 of 3a to that of the compound; for fold drop of activity compared to 3a: ratio of IC50 to that of 3a
T1 sequence (P34913 1-555): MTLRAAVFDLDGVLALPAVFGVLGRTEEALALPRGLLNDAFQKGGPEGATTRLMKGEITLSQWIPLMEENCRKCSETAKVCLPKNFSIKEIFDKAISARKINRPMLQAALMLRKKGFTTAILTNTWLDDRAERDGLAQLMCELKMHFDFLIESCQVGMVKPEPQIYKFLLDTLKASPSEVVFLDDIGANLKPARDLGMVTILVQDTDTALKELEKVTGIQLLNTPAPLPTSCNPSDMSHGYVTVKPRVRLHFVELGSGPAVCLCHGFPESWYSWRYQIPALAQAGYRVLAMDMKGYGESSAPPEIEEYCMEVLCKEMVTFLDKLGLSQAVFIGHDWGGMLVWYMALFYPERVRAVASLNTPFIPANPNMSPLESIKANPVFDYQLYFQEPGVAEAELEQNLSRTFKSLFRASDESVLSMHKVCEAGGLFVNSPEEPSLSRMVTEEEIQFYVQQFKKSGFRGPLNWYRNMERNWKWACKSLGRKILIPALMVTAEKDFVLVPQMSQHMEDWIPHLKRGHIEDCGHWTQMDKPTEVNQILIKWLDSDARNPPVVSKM

[2] = experimental LogP by HPLC-MS; assay type: physicochemical

CC12CC3CC(C1)CC(NC(=O)Nc1ccccc1F)(C3)C2 [3f, 1-[3-methyl(Adamantan-1-yl)]-3-(2-fluorophenyl) urea]
solubility [1]: 50 to 60 µM (≈ 15.1 to 18.1 µg/mL)
fold increase of activity compared to 3a (human sEH): 2.5 fold

O=C(Nc1ccc(C23CC4CC(CC(C4)C2)C3)cc1)Nc1ccccc1F [3e, 1-[4-(Adamantan-1-yl)phenyl]-3-(2-fluorophenyl) urea]
solubility [1]: 80 to 90 µM (≈ 29.2 to 32.8 µg/mL)

CCCC(CNC(=O)Nc1ccccc1F)C1C2CC3CC(C2)CC1C3 (stereo not shown) [3j, 1-[2-(Adamantan-2-yl)pentane-1-yl]-3-(2-fluorophenyl) urea]
chromatographic logP [2]: 6.55

CCC(CC12CC3CC(CC(C3)C1)C2)NC(=O)Nc1ccccc1F (stereo not shown) [3d, 1-[1-(Adamantan-1-yl)butane-2-yl]-3-(2-fluorophenyl) urea]
chromatographic logP [2]: 5.8
solubility [1]: 50 to 60 µM (≈ 17.2 to 20.7 µg/mL)
fold drop of activity compared to 3a (human sEH): 170 fold

O=C(NCC12CC3CC(CC(C3)C1)C2)Nc1ccccc1F [3b, 1-[(Adamantan-1-yl)methyl]-3-(2-fluorophenyl) urea]
chromatographic logP [2]: 4.4
solubility [1]: 60 to 70 µM (≈ 18.1 to 21.2 µg/mL)

CC(NC(=O)Nc1ccccc1F)C12CC3CC(CC(C3)C1)C2 (stereo not shown) [3c, 1-[1-(Adamantan-1-yl)ethyl]-3-(2-fluorophenyl) urea]
chromatographic logP [2]: 4.75
solubility [1]: 50 to 60 µM (≈ 15.8 to 19 µg/mL)
fold drop of activity compared to 3a (human sEH): 15 fold

CC12CC3(C)CC(C)(C1)CC(NC(=O)Nc1ccccc1F)(C2)C3 [3h, 1-[3,5,7-trimethyl(Adamantan-1-yl)]-3-(2-fluorophenyl) urea]
solubility [1]: 70 to 80 µM (≈ 23.1 to 26.4 µg/mL)
fold drop of activity compared to 3a (human sEH): 25 fold

O=C(Nc1ccccc1F)NC12CC3CC(CC(C3)C1)C2 [3a, 1-(Adamantan-1-yl)-3-(2-fluorophenyl) urea]
solubility [1]: 70 to 80 µM (≈ 20.2 to 23.1 µg/mL)
fold more active than 2-hydroxy substituted analog (human sEH): 37 fold
fold more active than unsubstituted 1-(adamantan-1-yl)-3-phenyl urea (human sEH): 4 fold

O=C(Nc1ccccc1F)NC1C2CC3CC(C2)CC1C3 (stereo not shown) [3i, 1-(Adamantan-2-yl)-3-(2-fluorophenyl) urea]
solubility [1]: 80 to 90 µM (≈ 23.1 to 26 µg/mL)
fold increase of activity compared to 3a (human sEH): 3.7 fold
